Measurements from patent publication US20230066011A1, “PYRROLOPYRIMIDINE DERIVATIVE, AND PHARMACEUTICAL COMPOSITION FOR PREVENTING OR TREATING PROTEIN KINASE-RELATED DISEASE COMPRISING SAME AS ACTIVE INGREDIENT” (VORONOI CO., LTD., priority 2019, published 2023).

Columns and labels:
DYRK1 = DYRK1 (Homo sapiens, UniProt Q13627); assay: Kinase HotSpot service (Reaction Biology Corporation), DYRK1; format: biochemical; conditions: ATP 10 uM, read-out: DYRK1 IC50 (values indicated by *)
Description: (§1) The inhibitory activities of the compounds were measured at a 3-fold concentration gradient starting from a maximum compound concentration of […], and the values measured using the Kinase HotSpot service (Reaction Biology Corporation) are indicated by an asterisk (*).
(§2) All the experimental methods were performed as provided by the Kinase HotSpot Customer Protocol (http://www.reactionbiology.com//Kinase_Assay_Protocol).

human DYRK1A and tau = assay: Inhibition of tau phosphorylation, ClariCELL Kinase Cell-Based Assay, HEK 293 cells expressing human DYRK1A and tau; conditions: for inhibition at 1 µM: HEK293, read-out: % inhibition at 1 uM, tau phosphorylation, compound 1 uM; for inhibition at 0.25 µM / inhibition at 0.5 µM: HEK293, tau phosphorylation; for inhibition at 0.25 µM: compound 0.25 uM; for inhibition at 0.5 µM: compound 0.5 uM
How it was run: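 Cell-based service assay: HEK 293 cells transiently expressing human DYRK1A and tau were treated with compound and lysed. Released tau was plate-captured and its phosphorylation quantified by ELISA with a phospho-tau-specific antibody.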

MDA-MB-468 cell line = assay: Inhibition of proliferation of MDA-MB-468 cancer cells (Cell Titer-Glo); format: cell-based; conditions: Homo sapiens, MDA-MB-468, 72 hours
How it was run: (§3)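 Luminescence from Cell Titer-Glo (10 min, room temperature) gave GI50 after 72 h compound treatment. Final compound levels spanned 0.000169–10.000000 μM over 11 points, 3-fold steps; 2,000 cells/well grown in DMEM or RPMI.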

LRRK2 = LRRK2 (Homo sapiens, UniProt Q5S007); assay: Kinase HotSpot service (Reaction Biology Corporation), LRRK2; format: biochemical; set-up: purchased DiscoverX Corp. (ScanMAX Kinase analysis panel, service); conditions: ATP 10 uM, read-out: LRRK2 IC50 (values indicated by *)
Sequence of LRRK2 (Q5S007 whole entry): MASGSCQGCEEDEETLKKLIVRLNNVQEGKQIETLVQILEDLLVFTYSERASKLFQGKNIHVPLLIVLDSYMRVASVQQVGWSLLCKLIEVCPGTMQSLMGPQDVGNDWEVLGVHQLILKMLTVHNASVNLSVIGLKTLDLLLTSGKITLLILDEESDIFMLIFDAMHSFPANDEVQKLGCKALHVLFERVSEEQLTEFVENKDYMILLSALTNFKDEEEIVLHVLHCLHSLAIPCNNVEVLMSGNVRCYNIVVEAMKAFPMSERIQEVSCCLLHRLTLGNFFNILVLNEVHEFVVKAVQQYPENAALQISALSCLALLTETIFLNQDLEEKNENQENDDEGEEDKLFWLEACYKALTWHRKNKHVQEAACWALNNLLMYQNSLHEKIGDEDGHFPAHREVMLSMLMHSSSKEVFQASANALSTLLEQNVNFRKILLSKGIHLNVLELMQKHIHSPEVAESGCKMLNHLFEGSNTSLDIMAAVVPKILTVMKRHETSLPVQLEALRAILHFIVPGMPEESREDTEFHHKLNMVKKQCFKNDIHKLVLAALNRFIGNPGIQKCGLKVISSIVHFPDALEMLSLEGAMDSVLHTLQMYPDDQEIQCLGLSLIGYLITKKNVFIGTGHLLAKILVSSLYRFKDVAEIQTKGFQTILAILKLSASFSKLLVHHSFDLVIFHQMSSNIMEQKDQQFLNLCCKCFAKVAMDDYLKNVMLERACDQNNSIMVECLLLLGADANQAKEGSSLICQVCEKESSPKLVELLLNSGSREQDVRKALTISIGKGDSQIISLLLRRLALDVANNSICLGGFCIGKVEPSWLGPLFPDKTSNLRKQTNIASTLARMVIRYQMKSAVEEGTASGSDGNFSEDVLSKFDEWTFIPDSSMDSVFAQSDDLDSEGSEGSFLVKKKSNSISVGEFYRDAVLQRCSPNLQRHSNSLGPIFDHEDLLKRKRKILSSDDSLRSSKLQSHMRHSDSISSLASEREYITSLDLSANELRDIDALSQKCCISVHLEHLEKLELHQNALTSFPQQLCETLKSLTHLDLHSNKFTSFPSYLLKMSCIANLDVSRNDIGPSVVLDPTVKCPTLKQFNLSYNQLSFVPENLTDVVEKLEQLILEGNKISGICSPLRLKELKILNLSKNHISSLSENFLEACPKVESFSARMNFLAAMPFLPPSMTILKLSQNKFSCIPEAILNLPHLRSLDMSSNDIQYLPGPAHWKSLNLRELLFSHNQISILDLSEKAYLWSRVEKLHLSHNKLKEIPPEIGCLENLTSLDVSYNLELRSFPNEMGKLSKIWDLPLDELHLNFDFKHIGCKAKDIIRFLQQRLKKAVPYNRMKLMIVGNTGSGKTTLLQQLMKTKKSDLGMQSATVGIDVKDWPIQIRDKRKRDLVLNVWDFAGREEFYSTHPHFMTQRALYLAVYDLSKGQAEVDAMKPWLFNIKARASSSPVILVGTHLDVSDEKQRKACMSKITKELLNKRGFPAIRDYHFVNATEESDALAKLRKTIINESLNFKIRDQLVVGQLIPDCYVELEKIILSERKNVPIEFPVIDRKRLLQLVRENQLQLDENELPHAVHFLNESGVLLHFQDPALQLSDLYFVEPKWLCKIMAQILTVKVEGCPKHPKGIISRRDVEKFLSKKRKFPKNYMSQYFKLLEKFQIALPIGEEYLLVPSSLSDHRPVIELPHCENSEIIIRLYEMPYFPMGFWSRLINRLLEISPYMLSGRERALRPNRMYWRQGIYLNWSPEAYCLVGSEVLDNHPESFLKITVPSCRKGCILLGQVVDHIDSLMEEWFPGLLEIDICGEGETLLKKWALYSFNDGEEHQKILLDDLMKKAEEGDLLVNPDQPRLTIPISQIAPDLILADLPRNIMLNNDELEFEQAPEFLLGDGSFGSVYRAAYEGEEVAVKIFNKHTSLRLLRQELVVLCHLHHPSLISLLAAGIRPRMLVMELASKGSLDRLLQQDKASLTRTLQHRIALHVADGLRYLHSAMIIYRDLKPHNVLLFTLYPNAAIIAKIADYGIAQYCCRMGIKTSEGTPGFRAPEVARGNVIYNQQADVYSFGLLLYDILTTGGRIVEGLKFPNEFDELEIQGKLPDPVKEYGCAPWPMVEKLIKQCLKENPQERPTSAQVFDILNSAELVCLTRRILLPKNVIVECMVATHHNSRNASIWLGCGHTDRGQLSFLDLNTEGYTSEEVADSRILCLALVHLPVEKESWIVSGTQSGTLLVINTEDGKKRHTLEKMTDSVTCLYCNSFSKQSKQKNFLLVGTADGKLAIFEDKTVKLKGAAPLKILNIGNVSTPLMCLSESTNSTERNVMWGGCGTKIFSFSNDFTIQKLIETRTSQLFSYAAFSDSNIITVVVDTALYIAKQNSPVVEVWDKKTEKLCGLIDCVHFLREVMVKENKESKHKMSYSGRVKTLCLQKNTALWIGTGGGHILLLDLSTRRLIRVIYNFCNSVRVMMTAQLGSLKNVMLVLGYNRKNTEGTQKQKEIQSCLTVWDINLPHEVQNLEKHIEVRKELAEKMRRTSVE
Description: as §1, §2

LRRK2 (G2019S) = LRRK2 (G2019S) (Homo sapiens, UniProt Q5S007, G2019S); assay: Kinase HotSpot service (Reaction Biology Corporation), LRRK2 (G2019S); format: biochemical; set-up: purchased DiscoverX Corp. (ScanMAX Kinase analysis panel, service); conditions: ATP 10 uM, read-out: LRRK2 (G2019S) IC50 (values indicated by *)
Sequence of LRRK2 (G2019S) (Q5S007 whole entry G2019S): as the sequence (Q5S007 whole entry) above, with G2019S counted along it
Description: as §1, §2

CLK1 = molecular target: T1, CLK1 (Homo sapiens, UniProt P49759); assay: Kinase HotSpot service (Reaction Biology Corporation), CLK1; format: biochemical; conditions: ATP 10 uM, read-out: CLK1 IC50 (values indicated by *)
T1 construct: purchased DiscoverX Corp. (ScanMAX Kinase analysis panel, service)
T1 sequence (P49759 whole entry): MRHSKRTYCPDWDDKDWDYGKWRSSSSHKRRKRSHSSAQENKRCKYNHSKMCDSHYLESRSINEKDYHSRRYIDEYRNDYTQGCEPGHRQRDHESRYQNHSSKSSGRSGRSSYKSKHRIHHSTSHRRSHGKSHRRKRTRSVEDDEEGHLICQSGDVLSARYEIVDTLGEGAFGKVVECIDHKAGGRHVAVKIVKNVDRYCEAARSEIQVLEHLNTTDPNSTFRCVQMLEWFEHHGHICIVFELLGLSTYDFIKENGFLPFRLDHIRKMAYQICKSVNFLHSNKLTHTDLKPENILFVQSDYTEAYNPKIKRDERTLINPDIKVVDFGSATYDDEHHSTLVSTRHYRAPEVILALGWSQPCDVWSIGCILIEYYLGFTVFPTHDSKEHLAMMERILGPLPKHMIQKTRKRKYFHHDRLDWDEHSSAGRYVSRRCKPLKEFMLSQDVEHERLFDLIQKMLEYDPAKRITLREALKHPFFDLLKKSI
Description: as §1, §2

MDA-MB-231 cell line = assay: Inhibition of proliferation of MDA-MB-231 cancer cells (Cell Titer-Glo); format: cell-based; conditions: Homo sapiens, 72 hours
How it was run: as §3

TTK = molecular target: T2, TTK (Homo sapiens, UniProt P33981); assay: TTK enzyme inhibition, ADP-Glo kinase assay; format: biochemical; set-up: purchased SignalChem T20-10G; conditions: ATP 5 μM
T2 sequence (P33981 1-857): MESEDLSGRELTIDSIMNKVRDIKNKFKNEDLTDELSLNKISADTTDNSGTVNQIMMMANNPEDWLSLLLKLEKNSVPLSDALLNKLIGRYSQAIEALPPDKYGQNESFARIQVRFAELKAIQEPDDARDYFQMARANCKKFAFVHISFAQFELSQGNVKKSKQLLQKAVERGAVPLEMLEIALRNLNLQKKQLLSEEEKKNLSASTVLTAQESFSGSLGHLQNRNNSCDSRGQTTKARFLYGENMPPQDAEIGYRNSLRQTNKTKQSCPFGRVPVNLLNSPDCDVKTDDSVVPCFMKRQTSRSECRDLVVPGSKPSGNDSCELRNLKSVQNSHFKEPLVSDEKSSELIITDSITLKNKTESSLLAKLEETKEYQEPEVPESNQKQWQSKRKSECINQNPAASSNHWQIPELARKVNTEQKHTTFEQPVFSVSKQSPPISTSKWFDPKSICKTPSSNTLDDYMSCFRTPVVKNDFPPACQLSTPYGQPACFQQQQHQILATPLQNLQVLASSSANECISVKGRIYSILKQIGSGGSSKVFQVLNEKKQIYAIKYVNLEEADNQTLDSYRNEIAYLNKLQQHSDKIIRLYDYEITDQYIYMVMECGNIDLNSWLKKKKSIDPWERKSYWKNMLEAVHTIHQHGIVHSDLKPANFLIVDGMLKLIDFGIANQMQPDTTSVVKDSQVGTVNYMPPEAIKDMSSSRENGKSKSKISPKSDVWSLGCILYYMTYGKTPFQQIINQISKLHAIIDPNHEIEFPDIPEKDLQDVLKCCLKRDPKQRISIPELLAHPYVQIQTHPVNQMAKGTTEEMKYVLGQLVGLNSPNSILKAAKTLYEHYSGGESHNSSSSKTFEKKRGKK
Description: To evaluate an inhibitory activity of the compound according to the present invention against LRRK2, LRRK2 (G2019S), DYRK1, CLK1, and TTK kinases, experiments were performed as follows.
Each of the Example compounds was reacted with a purified human TTK (SignalChem #T20-10G) enzyme to evaluate an ability to inhibit an enzyme using a method as described below. A composition of 40 mM Tris-HCl (pH 7.4), 20 mM MgCl2, 0.1 mg/mL BSA (a 5× kinase buffer, SignalChem #K03-09), and 50 μM DTT (SignalChem #D86-09B) was used as a reaction buffer, and all reactions of test substances were performed in the reaction buffer. Each of the compounds was diluted […] from a 10 mM DMSO stock using a serial dilution method, and enzyme activities were measured at final compound concentrations of 1, 0.333333, 0.111111, 0.037037, 0.012346, 0.004115, 0.001372, 0.000457, 0.000152, 0.000051, and 0.000017 μM. In the test, purified ATP (5 μM, Promega #V6930) and an MBP enzyme substrate (0.2 μg, SignalChem M42-51N) were reacted with a human TTK (7.5 ng) enzyme at 25° C. for 4 hours, and the enzyme activities were then determined using an in vitro ADP-Glo™ kinase assay (Promega #V6930). An enzyme-activity reaction solution, an ADP-Glo reaction solution, and an enzyme-ability detection solution were reacted at a ratio of 2:2:1 to measure a degree of inhibition of the enzyme activity with luminescence. The degree of inhibition of the enzyme activity according to the treatment concentration of each of the compounds was calculated based on the fluorescence of the enzyme activity of the solvent control which was not treated with the compound. In this case, the concentration of each of the compounds inhibiting 50% of the enzyme activity was determined to be an IC50 (nM) value, and calculated using Prism (Version 8.2 GraphPad) software.

IL-6 = assay: Inhibition of LPS-induced IL-6 secretion of THP-1 monocytes (ELISA); format: cell-based, human; conditions: Homo sapiens, THP-1; compound 0.5 μM, LPS 500 ng/mL, 24 hours; read-out: THP1/IL6 (% inhib)
How it was run: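 THP-1 monocytes grown 16 h at 37 °C, pretreated 1 h with compound at final 0.5 μM, then stimulated with LPS at final 500 ng/mL for 24 h. IL-6 and TNF-α in culture supernatant measured by ELISA (OD 450 nm).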

| SMILES | IC50 (DYRK1) | inhibition at 1 µM (human DYRK1A and tau) | inhibition at 0.25 µM (human DYRK1A and tau) | inhibition at 0.5 µM (human DYRK1A and tau) | GI50 (MDA-MB-468 cell line) | IC50 (LRRK2) | IC50 (LRRK2 (G2019S)) | IC50 (CLK1) | GI50 (MDA-MB-231 cell line) | IC50 (TTK) | inhibition at 0.5 µM (IL-6) |
| --- | --- | --- | --- | --- | --- | --- | --- | --- | --- | --- | --- |
| COc1cc(S(=O)(=O)N2CCOCC2)ccc1Nc1nc(C2CC2)c2c(C(F)(F)F)c[nH]c2n1 [Example 225, 4-cyclopropyl-N-(2-methoxy-4-(morpholinosulfonyl)phenyl)-5-(trifluoromethyl)-7H-pyrrolo[2,3-d]pyrimidin-2-amine] | < 100 nM | 29.9% | 1% | -2.5% | 301 to 1000 nM | < 100 nM | < 100 nM | < 100 nM | 301 to 1000 nM | < 100 nM | – |
| O=C(c1ccc(Nc2nc(C3CC3)c3c(C(F)(F)F)c[nH]c3n2)c2c1CCO2)N1CC[C@H](N2CCOCC2)C1 [Example 472] | < 100 nM | 56.5% | 23.6% | 36.5% | 301 to 1000 nM | < 100 nM | – | < 100 nM | – | < 100 nM | 31.5% |
| O=C(c1ccc(Nc2nc(C3CC3)c3c(C(F)(F)F)c[nH]c3n2)c2c1OCCO2)N1CCOCC1 [Example 227, (8-((4-cyclopropyl-5-(trifluoromethyl)-7H-pyrrolo[2,3-d]pyrimidin-2-yl)amino)-2,3-dihydrobenzo[b][1,4]dioxin-5-yl)(morpholino)methanone] | < 100 nM | 32.7% | 7.4% | 22.8% | 301 to 1000 nM | < 100 nM | < 100 nM | < 100 nM | – | 101 to 300 nM | – |
